# Assay results from ChEMBL document CHEMBL1149955, “The discovery and synthesis of 2-biphenylcarbapenems active against methicillin resistant staphylococci” (1995).
# Legend:
# Assay type in all cases: functional
# Staphylococcus sp. [1] = experiment: Compound was evaluated for anti-methicillin-resistant activity against methicillin-resistant coagulase-negative Staphylococci CL 202
# Staphylococcus sp. [2] = experiment: Compound was evaluated for anti-methicillin-resistant activity against methicillin-resistant coagulase-negative Staphylococci CL 171
# Staphylococcus sp. [3] = experiment: Compound was evaluated for anti-methicillin-resistant activity against methicillin-resistant coagulase-negative Staphylococci CL 227
# Staphylococcus sp. [4] = experiment: Compound was evaluated for anti-methicillin-resistant activity against methicillin-resistant coagulase-negative Staphylococci CL 546
# Staphylococcus sp. [5] = experiment: Compound was evaluated for anti-methicillin-resistant activity against methicillin-resistant coagulase-negative Staphylococci
# Staphylococcus aureus [6] = experiment: Compound was evaluated for anti-methicillin-resistant activity against methicillin-resistant Staphylococcus aureus
# Staphylococcus aureus [7] = experiment: Antibacterial activity against Methicillin-sensitive Staphylococcus aureus (4)
# [8] = target: T1, Dipeptidase 1 (Sus scrofa) (UniProt P22412); experiment: DHP-I susceptibility relative to imipenem
# T1 sequence (whole entry): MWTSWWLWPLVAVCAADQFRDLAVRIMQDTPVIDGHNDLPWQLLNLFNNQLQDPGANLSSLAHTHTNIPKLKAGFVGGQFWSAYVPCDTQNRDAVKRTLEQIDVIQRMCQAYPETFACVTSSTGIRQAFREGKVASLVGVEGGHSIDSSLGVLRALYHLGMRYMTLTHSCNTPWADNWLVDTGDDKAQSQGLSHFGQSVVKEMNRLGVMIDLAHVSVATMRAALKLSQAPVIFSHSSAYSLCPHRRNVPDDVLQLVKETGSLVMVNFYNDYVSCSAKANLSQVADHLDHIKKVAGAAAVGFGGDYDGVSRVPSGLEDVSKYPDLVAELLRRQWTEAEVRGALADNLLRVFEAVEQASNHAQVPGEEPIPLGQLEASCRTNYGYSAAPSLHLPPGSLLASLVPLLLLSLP
# Serratia [9] = experiment: Antibacterial activity against Serratia species. (2)
# Enterobacter sp. [10] = experiment: Antibacterial activity against Enterobacter species. (6)
# Escherichia coli [11] = experiment: Antibacterial activity against Escherichia coli (5)
# Enterococcus sp. [12] = experiment: Antibacterial activity against Enterococcus species. (3)
# Staphylococcus aureus [13] = experiment: Compound was evaluated for anti-methicillin-resistant activity against methicillin-resistant Staphylococcus aureus CL 1395
# Pseudomonas aeruginosa [14] = experiment: Antibacterial activity against Pseudomonas aeruginosa (5 )
# Staphylococcus aureus [15] = experiment: Compound was evaluated for anti-methicillin-resistant activity against methicillin-resistant Staphylococcus aureus CL 1985
# Staphylococcus aureus [16] = experiment: Compound was evaluated for anti-methicillin-resistant activity against methicillin-resistant Staphylococcus aureus CL 1990
# Staphylococcus aureus [17] = experiment: Compound was evaluated for anti-methicillin-resistant activity against methicillin-resistant Staphylococcus aureus CL 792
# Klebsiella sp. [18] = experiment: Antibacterial activity against Klebsiella species. (5)
# Staphylococcus aureus [19] = experiment: Compound was evaluated for anti-methicillin-resistant activity against methicillin-resistant Staphylococcus aureus CL 3025
# Proteus [20] = experiment: Antibacterial activity against Proteus species. (5)
# Staphylococcus aureus [21] = experiment: Antibacterial activity against Methicillin-resistant Staphylococcus aureus (1)
# Staphylococcus aureus [22] = experiment: Compound was evaluated for anti-methicillin-resistant activity against methicillin-resistant Staphylococcus aureus CL 3033
# Staphylococcus aureus [23] = experiment: Compound was evaluated for anti-methicillin-resistant activity against methicillin-resistant Staphylococcus aureus CL 1989
# Staphylococcus aureus [24] = experiment: Compound was evaluated for anti-methicillin-resistant activity against methicillin-resistant Staphylococcus aureus CL 1983
# Staphylococcus aureus [25] = experiment: Compound was evaluated for anti-methicillin-resistant activity against methicillin-resistant Staphylococcus aureus CL 3043
# Staphylococcus aureus [26] = experiment: Compound was evaluated for anti-methicillin-resistant activity against methicillin-resistant Staphylococcus aureus CL 3031
# Staphylococcus aureus [27] = experiment: Compound was evaluated for anti-methicillin-resistant activity against methicillin-resistant Staphylococcus aureus CL 1991
# Staphylococcus aureus [28] = experiment: Compound was evaluated for anti-methicillin-resistant activity against methicillin-resistant Staphylococcus aureus CL 714
# Enterococcus sp. [29] = experiment: Relative potency was calculated against Enterococcus species. (3) by dividing the species index of Imipenem by the species index of the test compound
# Escherichia coli [30] = experiment: Relative potency was calculated against Escherichia coli (5) by dividing the species index of Imipenem by the species index of the test compound
# Staphylococcus aureus [31] = experiment: Relative potency was calculated against Methicillin-resistant Staphylococcus aureus (1) by dividing the species index of Imipenem by the species index of the test compound
# Serratia [32] = experiment: Relative potency was calculated against Serratia species. (2) by dividing the species index of Imipenem by the species index of the test compound
# Enterobacter sp. [33] = experiment: Relative potency was calculated against Enterobacter species. (6) by dividing the species index of Imipenem by the species index of the test compound
# Staphylococcus aureus [34] = experiment: Relative potency was calculated against Methicillin-sensitive Staphylococcus aureus (4) by dividing the species index of Imipenem by the species index of the test compound
# Proteus [35] = experiment: Relative potency was calculated against Proteus species. (5) by dividing the species index of Imipenem by the species index of the test compound
# Pseudomonas aeruginosa [36] = experiment: Relative potency was calculated against Pseudomonas aeruginosa (5 ) by dividing the species index of Imipenem by the species index of the test compound
# Klebsiella sp. [37] = experiment: Relative potency was calculated against Klebsiella species. (5) by dividing the species index of Imipenem by the species index of the test compound
compound,measurement,setting,value
CN[C@H](CC(C)C)C(=O)N[C@H]1C(=O)N[C@@H](CC(N)=O)C(=O)N[C@H]2C(=O)N[C@H]3C(=O)N[C@H](C(=O)N[C@H](C(=O)O)c4cc(O)cc(O)c4-c4cc3ccc4O)[C@H](O)c3ccc(c(Cl)c3)Oc3cc2cc(c3O[C@@H]2O[C@H](CO)[C@@H](O)[C@H](O)[C@H]2O[C@H]2C[C@](C)(N)[C@H](O)[C@H](C)O2)Oc2ccc(cc2Cl)[C@H]1O [VANCOMYCIN],MIC,Staphylococcus sp. [1],8 µg/mL
same,MIC,Staphylococcus sp. [2],8 µg/mL
same,MIC,Staphylococcus sp. [3],2 µg/mL
same,MIC,Staphylococcus sp. [4],4 µg/mL
same,MIC50,Staphylococcus sp. [5],4 µg/mL
same,MIC90,Staphylococcus sp. [5],8 µg/mL
same,MIC50,Staphylococcus aureus [6],1 µg/mL
same,MIC90,Staphylococcus aureus [6],2 µg/mL
C[C@@H](O)[C@H]1C(=O)N2C(C(=O)O)=C(SCCNC=N)C[C@H]12 [IMIPENEM ANHYDROUS],MIC,Staphylococcus aureus [7],0.01 µg/mL
same,Susceptibility,[8],1
same,MIC,Serratia [9],0.29 µg/mL
same,MIC,Staphylococcus sp. [1],> 128 µg/mL
same,MIC,Staphylococcus sp. [2],> 128 µg/mL
same,MIC,Enterobacter sp. [10],0.18 µg/mL
same,MIC,Escherichia coli [11],0.19 µg/mL
same,MIC,Enterococcus sp. [12],1.8 µg/mL
same,MIC,Staphylococcus aureus [13],64 µg/mL
same,MIC,Pseudomonas aeruginosa [14],0.36 µg/mL
same,MIC,Staphylococcus aureus [15],1 µg/mL
same,MIC,Staphylococcus aureus [16],4 µg/mL
same,MIC,Staphylococcus aureus [17],32 µg/mL
same,MIC,Klebsiella sp. [18],0.29 µg/mL
same,MIC,Staphylococcus aureus [19],2 µg/mL
same,MIC,Proteus [20],0.78 µg/mL
same,MIC,Staphylococcus aureus [21],33 µg/mL
same,MIC,Staphylococcus sp. [3],64 µg/mL
same,MIC,Staphylococcus aureus [22],128 µg/mL
same,MIC,Staphylococcus sp. [4],64 µg/mL
same,MIC,Staphylococcus aureus [23],2 µg/mL
same,MIC,Staphylococcus aureus [24],1 µg/mL
same,MIC50,Staphylococcus sp. [5],64 µg/mL
same,MIC90,Staphylococcus sp. [5],> 128 µg/mL
same,MIC,Staphylococcus aureus [25],16 µg/mL
same,MIC,Staphylococcus aureus [26],32 µg/mL
same,MIC,Staphylococcus aureus [27],1 µg/mL
same,MIC,Staphylococcus aureus [28],32 µg/mL
same,MIC50,Staphylococcus aureus [6],4 µg/mL
same,MIC90,Staphylococcus aureus [6],64 µg/mL
C[C@@H](O)[C@H]1C(=O)N2C(C(=O)[O-])=C(c3ccc(-c4ccc(C[n+]5ccc(N(C)C)cc5)cc4)cc3)C[C@H]12,Susceptibility,[8],0.46
same,Relative potency,Enterococcus sp. [29],2
same,Relative potency,Escherichia coli [30],0.31
same,Relative potency,Staphylococcus aureus [31],3.9
same,Relative potency,Serratia [32],0.26
same,Relative potency,Enterobacter sp. [33],0.12
same,Relative potency,Staphylococcus aureus [34],0.16
same,Relative potency,Proteus [35],0.44
same,Relative potency,Pseudomonas aeruginosa [36],0.013
same,Relative potency,Klebsiella sp. [37],0.04
C[C@@H](O)[C@H]1C(=O)N2C(C(=O)[O-])=C(c3cccc(-c4ccc(C[n+]5ccccc5N)cc4)c3)C[C@H]12,Susceptibility,[8],0.04
same,MIC,Staphylococcus sp. [1],2 µg/mL
same,MIC,Staphylococcus sp. [2],4 µg/mL
same,Relative potency,Enterococcus sp. [29],6.2
same,Relative potency,Escherichia coli [30],0.11
same,MIC,Staphylococcus aureus [13],2 µg/mL
same,Relative potency,Staphylococcus aureus [31],154
same,MIC,Staphylococcus aureus [15],1 µg/mL
same,Relative potency,Serratia [32],0.11
same,MIC,Staphylococcus aureus [16],1 µg/mL
same,MIC,Staphylococcus aureus [17],1 µg/mL
same,Relative potency,Enterobacter sp. [33],0.04
same,Relative potency,Staphylococcus aureus [34],0.43
same,MIC,Staphylococcus aureus [19],1 µg/mL
same,Relative potency,Proteus [35],0.38
same,MIC,Staphylococcus sp. [3],2 µg/mL
same,MIC,Staphylococcus aureus [22],2 µg/mL
same,MIC,Staphylococcus sp. [4],2 µg/mL
same,MIC,Staphylococcus aureus [23],0.5 µg/mL
same,Relative potency,Pseudomonas aeruginosa [36],0.01
same,MIC,Staphylococcus aureus [24],0.5 µg/mL
same,MIC50,Staphylococcus sp. [5],2 µg/mL
same,MIC90,Staphylococcus sp. [5],4 µg/mL
same,MIC,Staphylococcus aureus [25],1 µg/mL
same,MIC,Staphylococcus aureus [26],2 µg/mL
same,MIC,Staphylococcus aureus [27],1 µg/mL
same,MIC,Staphylococcus aureus [28],2 µg/mL
same,MIC50,Staphylococcus aureus [6],1 µg/mL
same,MIC90,Staphylococcus aureus [6],2 µg/mL
same,Relative potency,Klebsiella sp. [37],0.04
COc1cccc(OC)c1C(=O)N[C@@H]1C(=O)N2[C@@H]1SC(C)(C)[C@@H]2C(=O)[O-].[Na+],MIC,Staphylococcus sp. [1],> 512 µg/mL
same,MIC,Staphylococcus sp. [2],> 512 µg/mL
same,MIC,Staphylococcus aureus [13],512 µg/mL
same,MIC,Staphylococcus aureus [15],64 µg/mL
same,MIC,Staphylococcus aureus [16],128 µg/mL
same,MIC,Staphylococcus aureus [17],512 µg/mL
same,MIC,Staphylococcus aureus [19],64 µg/mL
same,MIC,Staphylococcus sp. [3],512 µg/mL
same,MIC,Staphylococcus aureus [22],> 512 µg/mL
same,MIC,Staphylococcus sp. [4],> 512 µg/mL
same,MIC,Staphylococcus aureus [23],64 µg/mL
same,MIC,Staphylococcus aureus [24],64 µg/mL
same,MIC50,Staphylococcus sp. [5],> 512 µg/mL
same,MIC90,Staphylococcus sp. [5],> 512 µg/mL
same,MIC,Staphylococcus aureus [25],128 µg/mL
same,MIC,Staphylococcus aureus [26],256 µg/mL
same,MIC,Staphylococcus aureus [27],64 µg/mL
same,MIC,Staphylococcus aureus [28],512 µg/mL
same,MIC50,Staphylococcus aureus [6],128 µg/mL
same,MIC90,Staphylococcus aureus [6],512 µg/mL
C[C@@H](O)[C@H]1C(=O)N2C(C(=O)[O-])=C(c3cccc(C[n+]4ccccc4N)c3)C[C@H]12,Susceptibility,[8],0.11
same,Relative potency,Enterococcus sp. [29],12.9
same,Relative potency,Escherichia coli [30],1.7
same,Relative potency,Staphylococcus aureus [31],2
same,Relative potency,Serratia [32],4.4
same,Relative potency,Enterobacter sp. [33],3
same,Relative potency,Staphylococcus aureus [34],0.5
same,Relative potency,Proteus [35],4.2
same,Relative potency,Pseudomonas aeruginosa [36],0.02
same,Relative potency,Klebsiella sp. [37],1.1
